The results in this text go back to patent US20060223792A1, “Phenyl and pyridyl LTA4H modulators” (priority 2005, published 2006).

Where a name gives a salt, the structure may show the parent alone. Read-outs that look alike come from different tables or passages of the source.

Assay [1] concerns LTB4 production by calcium ionophore-stimulated murine blood. Nature of the assay: LTB4 production by calcium ionophore-stimulated murine blood for LTA4H inhibitor activity. To be noted: diluted CD-1 mouse whole blood, calcium ionophore A23187, LTB4 by enzyme-linked immunoassay. Format: cell-based, CD-1 mice. The method, then:
LTB4 Production by Calcium Ionophore-Stimulated Murine Blood for LTA4H Inhibitor Activity
CD-1 mice were sacrificed, and blood was collected in heparin-containing syringes by cardiac puncture. The blood was diluted 1:15 with RPMI-1640 medium, and 200-μL aliquots of the diluted blood were added to wells of a 96-well microtiter plate. LTA4H inhibitor test compounds were prepared at different concentrations in RPMI-1640 medium containing […], and 20 μL of each test solution was added to a well containing diluted whole blood (final DMSO concentration of 0.1%). After the microtiter plate contents were incubated for 15 min at 37° C. in a humidified incubator, calcium ionophore A23187 (Sigma Chemical Co., St. Louis, Mo.) was added to each sample well (final concentration=20 ng/mL). The incubation was continued under the same conditions for an additional 10 min to allow LTB4 formation. The reaction was terminated by centrifugation (833×g, 10 min at 4° C.), and supernatants were analyzed for LTB4 by a commercially available enzyme-linked immunoassay (Cayman Chemical Co.) according to the manufacturer's instructions. Positive controls, under essentially identical conditions but without addition of an inhibitor compound, and negative unstimulated controls, containing all assay components except calcium ionophore, were routinely run in each experiment. IC50 values were determined by fitting the activity data at different compound concentrations to a 4-parameter equation using the Grafit program (Erithacus software).

The target of assay [2] is T1, recombinant human LTA4 hydrolase (rhLTA4H) (Homo sapiens, UniProt P09960).
T1 construct: made in house; host or cells: Spodoptera frugiperda (Sf-9) cells, baculovirus (pFastBac1)
T1 sequence (P09960 1-611): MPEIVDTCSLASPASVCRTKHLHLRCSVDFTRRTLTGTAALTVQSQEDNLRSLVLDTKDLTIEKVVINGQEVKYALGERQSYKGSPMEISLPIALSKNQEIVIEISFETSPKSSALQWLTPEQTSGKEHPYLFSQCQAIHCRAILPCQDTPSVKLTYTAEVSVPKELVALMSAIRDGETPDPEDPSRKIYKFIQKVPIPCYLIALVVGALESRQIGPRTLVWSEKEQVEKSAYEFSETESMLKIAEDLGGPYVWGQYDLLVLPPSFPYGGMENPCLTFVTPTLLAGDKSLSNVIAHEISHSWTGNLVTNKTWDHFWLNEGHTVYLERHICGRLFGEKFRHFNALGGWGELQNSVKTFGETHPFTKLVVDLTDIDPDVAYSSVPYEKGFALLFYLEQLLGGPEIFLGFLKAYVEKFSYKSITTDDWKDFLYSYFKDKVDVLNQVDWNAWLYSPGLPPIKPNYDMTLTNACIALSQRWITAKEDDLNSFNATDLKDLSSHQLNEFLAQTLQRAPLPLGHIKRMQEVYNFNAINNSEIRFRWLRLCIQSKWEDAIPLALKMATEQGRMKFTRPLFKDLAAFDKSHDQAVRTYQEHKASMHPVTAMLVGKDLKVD
The assay is described as follows: Recombinant human LTA4 hydrolase assay for LTA4 hydrolase inhibitor activity. Format: biochemical. An outline of the steps:
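Sf-9-expressed rhLTA4H (36 ng) preincubated 10 min at rt with compound in 0.1 M potassium phosphate pH 7.4, 5 mg/mL fatty-acid-free BSA; 9 ng LTA4 free acid added, 10 min at rt in 225 μL. LTB4 measured by enzyme immunoassay; IC50 from 4-parameter fit, mean of one to three determinations.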

Assay [3] has as its system ex vivo stimulated LTB4 production. Nature of the assay: Murine arachidonic acid-induced inflammation model: ex vivo stimulated LTB4 production in blood. To be noted: Mus musculus; 30 mg/kg oral gavage, female Balb/c mice; blood taken 3 h after arachidonic acid, stimulated ex vivo with A23187; read-out: % Inh. LTB4. On the procedure: (§1) Murine Arachidonic Acid-Induced Inflammation Model
(§2) LTA4H inhibitor compounds of the present invention were dissolved in 20% cyclodextran/H2O at a concentration of 3 mg/mL. The solutions were administered by oral gavage to female Balb/c mice weighing approximately 20 grams each (0.2 mL per mouse, 30 mg of LTA4H inhibitor compound per kg). Sixty minutes after being administered an LTA4 inhibitor, each mouse received topical application of 20 μL of arachidonic acid (100 mg/mL in acetone) to the left ear and 20 μL of acetone only to the right ear. After 3 h, the mice were sacrificed, blood was withdrawn in heparinized syringes, and 8 mm ear biopsies were taken. Ear biopsies were weighed to determine edema and then frozen at −80° C. until needed for determination of neutrophil influx.
One hundred-microliter aliquots of heparinized blood were added to wells of a microtiter plate, along with equal volumes of RPMI-1640 medium, and calcium ionophore A23187 was added to each sample well (final concentration=[…]). The microtiter plate contents were incubated for 10 min at 37° C. in a humidified incubator. The reaction was terminated by centrifugation (833×g, 10 min at 4° C.). Supernatants were analyzed for LTB4 by a commercially available enzyme-linked immunoassay (Cayman Chemical Co.) in accordance with the manufacturer's instructions. The percent inhibition of ex vivo stimulated LTB4 production (% Inh. LTB4) was determined by comparison to animals treated identically except that the solution admininstered by oral gavage was devoid of inhibitor compound.

The subject of assay [4] is neutrophil influx (myeloperoxidase, MPO). The assay is described as follows: Murine arachidonic acid-induced inflammation model: neutrophil influx in ear (myeloperoxidase activity). Format: in vivo, female Balb/c mice. To be noted: Mus musculus, read-out: % Inh. MPO. The method, then: as §1, §2
Neutrophil influx was quantified by measuring the activity of myeloperoxidase (MPO), a neutrophil-specific enzyme. The ear biopsies were homogenized in 0.5 mL extraction buffer (0.3 M sucrose, 0.22% (w/v) hexadecyl trimethyl ammonium bromide (CTAB), and 2.5 mM citrate prepared from 0.5 M citrate stock solution (pH 5.0)). Debris was removed by centrifugation at 14000×g for 10 min. Aliquots of 10 μL of the resulting supernatant were added to wells of a microtiter plate, along with 90-μL aliquots of dilution buffer (10 mM citrate, 0.22% CTAB), followed by addition of 20 μL TMB liquid substrate system (Sigma Chemical Co.) to each sample well. The microtiter plate contents were held at rt for 1 h. The reaction was stopped by addition of 100 μL 1 M H2SO4 to each sample well, and the myeloperoxidase activity in each sample was determined from the absorbance at 405 nm. The background value from the right ear, treated only with acetone, was subtracted from that for the left ear, treated with arachidonic acid in acetone, for each animal. The percent inhibition of neutrophil influx (% lnh. MPO) by compounds of the invention was determined by comparison to animals treated identically, except that the solution administered by oral gavage was devoid of inhibitor compound.

The mark [5] stands for this setting: recombinant human LTA4H, LTB4 quantified by enzyme-linked immunoassay, average of one to three determinations, read-out: IC50.

As for `O=C(Nc1cccc(O)c1)Oc1ccc(OCCN2CCC(O)(c3ccccc3)CC2)cc1` [Example 11, (3-hydroxy-phenyl)-carbamic acid 4-[2-(4-hydroxy-4-phenyl-piperidin-1-yl)-ethoxy]-phenyl ester], the IC50 stood at 12 nM in assay [1] and 0.3 nM in assay [2] (setting [5]).
Consider `CCCCN(CCCC)CCCc1ccc(OC(=O)Nc2ccccc2)cc1` [Example 12, Phenyl-carbamic acid 4-(3-dibutylamino-propyl)-phenyl ester hydrochloride], for which the IC50 in assay [1] amounted to 88 nM; in assay [2], 3 nM.
Regarding `O=C(Cc1ccc(OCCN2CCC(O)(c3ccccc3)CC2)cc1)Nc1ccccc1O` [Example 13, N-(2—hydroxy-phenyl)-2-{4-[2-(4-hydroxy-4-phenyl-piperidin-1-yl)-ethoxy]-phenyl}-acetamide], the IC50 amounted to 47 nM in assay [1] and 10 nM in assay [2] (setting [5]).
With `O=C(Nc1ccccc1)Oc1ccc(OCCN2CCCCC2)cc1` [Example 15, Phenyl-carbamic acid 4-(2-piperidin-1-yl-ethoxy)-phenyl ester], in assay [3], the inhibition at 30 mg/kg is 78%. The inhibition in vivo at 30 mg/kg in assay [4] (po, 3 h) was 92%. The half-maximal inhibitory concentration (IC50) in assay [2] (setting [5]) turned out to be 13 nM.
With `O=C(COc1ccc(OCCN2CCCCC2)cc1)c1ccccc1` [Example 24, 1-Phenyl-2-[4-(2-piperidin-1-yl-ethoxy)-phenoxy]-ethanone], the IC50 is 202 nM in assay [1] and 58 nM in assay [2] (setting [5]).
Regarding `c1ccc(CCOc2ccc(CCN3CCC(c4nnn[nH]4)CC3)cc2)cc1` [Example 30, 1-[2-(4-Phenethyloxy-phenyl)-ethyl]-4-(1H-tetrazol-5-yl)-piperidine], the values for the IC50 in assay [1] and in assay [2] (setting [5]) were 169 nM and 27 nM, respectively.
Regarding `O=C(O)CCN(CCc1ccc(OCCc2ccccc2)cc1)C1CC1` [Example 35, 3-{Cyclopropyl-[2-(4-phenethyloxy-phenyl)-ethyl]-amino}-propionic acid trifluoroacetic acid salt], the inhibition at 30 mg/kg in assay [3] was found to be 84%. In addition, in assay [4] (30 mg/kg oral gavage 60 min before topical arachidonic acid to ear, female Balb/c mice, ear biopsies after 3 h), the inhibition in vivo at 30 mg/kg was found to be 92%. Further, in assay [2] (setting [5]), the IC50 stood at 0.5 nM.
Consider `O=C(Nc1ccccc1)Oc1ccc(OCCN2CCC(O)(c3ccccc3)CC2)cc1` [Example 47, Phenyl-carbamic acid 4-[2-(4-hydroxy-4-phenyl-piperidin-1-yl)-ethoxy]-phenyl ester], for which, in assay [3], the inhibition at 30 mg/kg came out at 80%. Besides, the inhibition in vivo at 30 mg/kg in assay [4] (po, 3 h) is 95%. The IC50 in assay [2] (setting [5]) was found to be 1 nM.
Taken in the same sequence, the figures for `CCCCN(CCCC)CCOc1ccc(OC(=O)Nc2ccccc2)cc1` [Example 48, Phenyl-carbamic acid 4-(2-dibutylamino-ethoxy)-phenyl ester] were 69%, 66% and 9 nM.
`O=C(Nc1ccccc1)Oc1ccc(OCCN2CCC(CO)CC2)cc1` [Example 51, Phenyl-carbamic acid 4-[2-(4-hydroxymethyl-piperidin-1-yl)-ethoxy]-phenyl ester]: the IC50 came out at 12 nM in assay [1] and 4 nM in assay [2] (setting [5]).
Turning to `O=C(Nc1ccsc1)Oc1ccc(OCCN2CCCCC2)cc1` [Example 64, Thiophen-3-yl-carbamic acid 4-(2-piperidin-1-yl-ethoxy)-phenyl ester], the IC50 in assay [1] stood at 48 nM; in assay [2] (setting [5]), 3 nM.
Regarding `c1ccc(CCOc2ccc(OCCN3CCCCC3)cc2)cc1` [Example 67, 1-[2-(4-Phenethyloxy-phenoxy)-ethyl]-piperidine], the IC50 came out at 175 nM in assay [1] and 23 nM in assay [2] (setting [5]).
In the case of `c1ccc2c(c1)CC(Oc1ccc(OCCN3CCCCC3)cc1)C2` [Example 69, 1-{2-[4-(Indan-2-yloxy)-phenoxy]-ethyl}-piperidine], the IC50 is 215 nM in assay [1] and 20 nM in assay [2] (setting [5]).
The like results for `NC(=O)C1CCN(CCc2ccc(OCCc3ccccc3)cc2)CC1` [Example 79, 1-[2-(4-Phenethyloxy-phenyl)-ethyl]-piperidine-4-carboxylic acid amide] were, in that order, 192 nM and 50 nM.
Taken in the same sequence, the figures for `CS(=O)(=O)NC1CCN(Cc2ccc(OCCc3ccccc3)cc2)CC1` [Example 93, N-[1-(4-Phenethyloxy-benzyl)-piperidin-4-yl]methanesulfonamide] were 16 nM and 18 nM.
Taken in the same sequence, the figures for `c1ccc(CCOc2ccc(CN3CCC(c4nnn[nH]4)CC3)cc2)cc1` [Example 104, 1-(4-Phenethyloxy-benzyl)-4-(1H-tetrazol-5-yl)-piperidine] were 284 nM and 61 nM.
With `O=C1CCCN1C1CCN(Cc2ccc(OCCCc3ccccc3)cc2)CC1` [Example 107, 1-{1-[4-(3-Phenyl-propoxy)-benzyl]-piperidin-4-yl}-pyrrolidin-2-one], the IC50 stood at 33 nM in assay [1] and 5 nM in assay [2] (setting [5]).
Taken in the same sequence, the figures for `CC(=O)NC1CCN(Cc2ccc(OCCc3ccccc3)cc2)CC1` [Example 113, N-[1-(4-Phenethyloxy-benzyl)-piperidin-4-yl]-acetamide] were 56 nM and 13 nM.
On to `CS(=O)(=O)NC1CCN(Cc2ccc(OCCCc3ccccc3)cc2)CC1` [Example 119, N-{1-[4-(3-Phenyl-propoxy)-benzyl]-piperidin-4-yl}-methanesulfonamide], for which the IC50 in assay [1] is 93 nM; in assay [2] (setting [5]), 19 nM.
Take `CC(=O)NC1CCN(Cc2ccc(OCCCc3ccccc3)cc2)CC1` [Example 120, N-{1-[4-(3-Phenyl-propoxy)-benzyl]-piperidin-4-yl}-acetamide]: the results for the IC50 in assay [1] and in assay [2] (setting [5]) were 126 nM and 25 nM, respectively.

In general, IC50 refers to the concentration needed to halve the response being measured.
